# Where “and” joins values, the source holds several entries; their conditions need not be identical. Identical values can stand only once. Like-named read-outs stand apart in the source and are kept apart here.
# Columns and labels:
# [1] = molecular target: P. falciparum translation (P. falciparum lysate); test: P. falciparum in vitro translation (PfIVT) assay, lysate-based, luciferase reporter; assay type: biochemical, Plasmodium falciparum; settings: for PfIVT inhibition at 30 μM (%): single-point screen; for selectivity index/window, PfIVT compared to HsIVT: HsIVT IC50 over PfIVT IC50
# From the text: (§1) Our P. falciparum in vitro translation (PfIVT) assay is built upon previously established assays ([14], [17]) and is summarized in Fig. 1A. In this assay, successful reconstitution of Plasmodium protein translation is reported via synthesis of a luciferase reporter. For PfIVT, two independent untranslated regions (UTRs), previously shown to promote strong levels of translation ([17]), were introduced upstream and downstream of the luciferase. The 5′ UTR from P. falciparum histidine-rich protein 3 (PfHrp3) ([18]) was introduced upstream of the reporter gene, and the 3′ UTR from P. falciparum histidine-rich protein 2 (PfHrp2) gene ([19]) was introduced downstream. For the reporter construct to support our complementary human IVT assay (HsIVT), the 5′ UTR was replaced with an internal ribosome entry site (IRES) from encephalomyocarditis virus (EMCV) ([20]) and the 3′ UTR was replaced with a poly(A) tail ([21]). […] Finally, a 30-bp poly(A) tail, present within the vector and downstream of the luciferase gene, was inserted to enhance mRNA stability ([21]).
# (§2) Translationally active P. falciparum or human embryonic kidney (HEK) 293F lysates were supplemented with accessory, helper, amino acid, and energy regeneration solutions (see Materials and Methods for details). In vitro translation reactions were initiated by the addition of purified mRNA to each reaction well. Using this basic assay format, a number of parameters were assessed and optimized, namely, assay temperature, time, mRNA concentration, and reaction volume (summarized in Fig. S2 in the supplemental material). In addition, we compared the luminescence signal of the CBG firefly luciferase with CBG99, derived from the click beetle […] ([18]).
# 3D7 parasites were synchronized following two rounds of treatment with D-sorbitol (5%), as previously described ([40]). The hematocrit was reduced from 5% (for standard culture) to 1.5 to 2% and cultures were transferred into HYPERflasks (Corning). Fresh medium was added once or twice daily. […] Harvested red blood cells (infected) were lysed by incubation in 0.1% (wt/vol) saponin on ice for 10 min with gentle agitation. Free parasites were harvested by centrifugation (2,800 × g, 10 min, 4°C) and washed 3 times in wash buffer (WB; 100 mM potassium acetate, 2.5 mM magnesium acetate, 45 mM HEPES [pH 7.4], 250 mM sucrose, 2 mM dithiothreitol, and 15 μM leupeptin) to remove lysed red blood cell debris. The resulting pellet was resuspended in 1 volume of WB supplemented with cOmplete EDTA-free protease inhibitor cocktail (Roche; 1 tablet/20 mL) and human RNase A inhibitor (Sigma; 5 U/mL). Parasite lysis was achieved by nitrogen cavitation using a prechilled 45-mL Parr cell disruption vessel (1,500 lb/in^2, 60 min, 4°C). To clarify the lysate, it was centrifuged (10,000 × g, 15 min, 4°C), and the supernatant was collected, transferred into fresh tubes, and centrifuged (30,000 × g, 15 min, 4°C). As a quality assurance step for each lysate, the RNA content of the resulting supernatant was determined using a NanoDrop spectrophotometer (Shimadzu). Supernatants with RNA levels of >250 ng/μL were aliquoted (100 μL), flash frozen in liquid nitrogen, and stored at −80°C.
# [2] = tested on: asexual-blood-stage (ABS) P. falciparum; test: SYBR green-based P. falciparum asexual growth inhibition assay; assay type: cell-based; settings: Plasmodium falciparum
# Experimental: The Plasmodium falciparum reference strain 3D7 used throughout this study was cultured as previously described ([39]). Briefly, cultures incubated at 37°C in a humidified atmosphere of 1% O2 and 3% CO2 in balance with N2 were maintained in RPMI 1640 media supplemented with 5% A^+ human red blood cells (provided by the Scottish National Blood Transfusion Service), 25 mM HEPES, 2 mM L-glutamine, 0.5% AlbuMAX II (Gibco), 12 mM sodium bicarbonate, 0.2 mM hypoxanthine, and 20 mg/L gentamicin (pH 7.3).
# Our SYBR green asexual-growth assay was based on a previous report ([45]). In brief, 96-well black clear-bottom plates (Corning) were preprinted with a compound and normalized with DMSO to 0.5% of a total assay volume of 100 μL. Highly synchronized ring-stage parasites and blood were added to a 2% final parasitemia and 1% hematocrit. The compounds were incubated with parasites for 72 h prior to freezing at −20°C (to aid cell lysis). The plate was thawed on ice and lysis buffer (20 mM Tris pH 7.5, 5 mM EDTA, 0.008% [w/v] saponin, […]) containing SYBR green I (Thermo Fisher Scientific) at a final concentration of 0.02% (v/v) was added. The 96-well plate was equilibrated to room temperature for 1 h before fluorescence was determined on a TECAN Infinite Pro 200 microplate reader using green fluorescent protein (GFP) filters (excitation, 485 nm; emission, 535 nm). Data were fitted to a two-parameter equation using GraFit version 7.0 (Erithacus Software), and EC50 values were calculated. An excess of the standard inhibitor mefloquine (10 μM) was used to define 0% parasite growth.
# [3] = tested on: human translation (HEK 293F lysate); test: Human in vitro translation (HsIVT) assay, HEK 293F lysate, luciferase reporter; assay type: biochemical; settings: for effect on translation in the HsIVT assay (Fig. S3A): 10 µM, three technical replicates
# From the text: as §1, §2
# FreeStyle human embryonic kidney (HEK) 293F cells (Thermo Fisher Scientific) were grown in 500-mL polycarbonate Erlenmeyer vented flasks (Corning) containing FreeStyle 293 expression medium (Life Technologies) upon reaching a density of approximately 2 × 10^6. Cells were then centrifuged at 1,000 × g for 10 min at 4°C, the medium was discarded, and the resulting pellet was washed once in buffer II containing 20 U of human placental RNase inhibitor (Sigma-Aldrich) and cOmplete EDTA-free inhibitor cocktail (Roche) before being centrifuged at 2,800 × g for 10 min. Clarified HEK cell lysate was obtained in the same way as described for P. falciparum lysate.
# PfIVT and HsIVT reactions (5 μL final volume) were performed in 384-well plates (Corning) containing 50% lysate from cells (either P. falciparum or HEK 293F), 10% amino acid solution (final concentration of 400 μM for each amino acid in 60 mM KOH; biotechrabbit), 10% energy recovery solution (final assay concentrations of 40 mM HEPES [pH 7.4], 1.5 mM ATP, 0.15 mM GTP, […] creatine phosphate, and 40 U/mL creatine phosphokinase), 10% helper solution (final assay concentrations of 200 μM cystine, 2% polyethylene glycol 3000 [PEG 3000], 1 mM spermidine, 0.5 mM folinic acid, and 15 μM leupeptin), 10% supplemental salt solution (22.5 mM HEPES [pH 7.4], 50 mM potassium acetate, 1 mM magnesium acetate, 1 mM DTT, 1 U/mL human placental RNase inhibitor, 0.1 mM leupeptin), and 10% cbg99 luciferase mRNA (3,000 ng/mL). A master mix solution containing all components was prepared on ice prior to assays, and 5 μL was dispensed into wells using an automated Integra VIAFLO 16-channel 12.5-μL pipette.
# [4] = tested on: asexual-blood-stage P. falciparum; settings: cited from earlier work
# CBG99 luciferase = CBG99 luciferase (Pyrophorus plagiophthalamus, UniProt Q7M4K1); test: Luciferase counterscreen (false-positive counterscreen); assay type: biochemical, click beetle; settings: read-out: IC50 value (μM) Counterscreen, weighted mean ± SD of two technical replicates
# Sequence of CBG99 luciferase (Q7M4K1 entry or part of it): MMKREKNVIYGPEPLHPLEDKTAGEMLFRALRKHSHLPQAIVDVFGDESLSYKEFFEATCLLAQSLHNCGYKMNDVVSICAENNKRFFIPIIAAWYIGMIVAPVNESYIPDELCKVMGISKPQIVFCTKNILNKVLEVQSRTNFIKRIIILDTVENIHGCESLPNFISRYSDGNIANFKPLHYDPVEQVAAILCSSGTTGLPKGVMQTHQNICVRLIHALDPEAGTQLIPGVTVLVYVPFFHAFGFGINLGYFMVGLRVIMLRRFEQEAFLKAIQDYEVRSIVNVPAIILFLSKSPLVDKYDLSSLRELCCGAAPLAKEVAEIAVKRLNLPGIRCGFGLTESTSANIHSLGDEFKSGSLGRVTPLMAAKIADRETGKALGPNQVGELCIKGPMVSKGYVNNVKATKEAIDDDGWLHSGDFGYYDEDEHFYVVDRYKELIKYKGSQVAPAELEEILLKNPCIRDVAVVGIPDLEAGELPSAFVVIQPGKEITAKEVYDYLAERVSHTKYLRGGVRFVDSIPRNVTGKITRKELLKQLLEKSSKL
# Experimental: Hits identified in our primary assay screen were assessed for their potential to interfere with the cbg99 luciferase reporter. For this counterscreen, the master mix containing all the components required for translation (as described above) was incubated for 210 min at 32°C, resulting in the in vitro translation of cbg99 luciferase. The produced luciferase was then incubated with test compounds for 5 min prior to the addition of luciferase reaction buffer. […] Hits from the primary screen were assessed as luciferase inhibitors in 8-point dose-dependent assays ranging from 30 μM to 13.7 nM (1:3 dilutions). Levels of luciferase inhibition were determined relative to the positive control.
# [5] = established inhibitors of protein translation, read-out: IC50 values, µM PfIVT (Table S1)
# [6] = established inhibitors of protein translation, read-out: EC50 values, µM PfABS (Table S1)
# [7] = P. falciparum Dd2 cell line, read-out: P. falciparum asexual-blood-stage EC50
# [8] = P. falciparum 3D7 cell line, read-out: P. falciparum asexual-blood-stage EC50
# [9] = Pathogen Box hits, 8-point, weighted mean ± SD of two technical replicates, read-out: IC50 value (μM) PfIVT
# [10] = Pathogen Box hits, weighted mean ± SD of two technical replicates, read-out: IC50 value (μM) HsIVT
Compound,"IC50 [1, 5] [µM]","IC50 ([1]; Table 3, read-out: PfIVT IC50) [µM]","EC50 [4, 8] [µM]","selectivity index/window, PfIVT compared to HsIVT [1] [fold]","IC50 [1, 9] [µM]",PfIVT inhibition at 30 μM (%) ([1]; Pathogen Box),IC50 (CBG99 luciferase; Pathogen Box hits),"IC50 [3, 10] [µM]",also measured
"C[C@H]1CCC[C@H](C[C@H]2Cc3cc(O)cc(O)c3C(=O)O2)O1 [Cladosporin, cladosporin, reference compound]",13,,,,,,,,"EC50 [2, 6]: 0.07 µM; effect on translation in the HsIVT assay (Fig. S3A) [3]: little or no effect; activity in HsIVT assay at 100 μM ([3]; 100 μM): inactive"
"C[C@@H]1C[C@H](C)C[C@H](C)[C@@H](O)CC(=O)O[C@H]([C@@H]2CCC[C@H]2C(=O)O)C/C=C/C=C(/C#N)[C@H](O)[C@@H](C)C1 [Borrelidin, borrelidin, reference compound]",1.2,,,,,,,,"EC50 ([4]; ref 50 (supplement numbering), read-out: EC50 values, µM PfABS (Table S1)): 0.002 µM"
"NCCCC[C@H](N)C(=O)NS(=O)(=O)OC[C@H]1O[C@@H](n2cnc3c(N)ncnc32)[C@H](O)[C@@H]1O [DDD01712277, reference compound]",0.2,,,,,,,,"EC50 [2, 6]: 0.1 µM"
Nc1nc(NC2Cc3ccc(F)cc3C2)nc(N2CCCCC2)n1 (stereo not drawn) [MMV1580839],,0.8 ± 0.08,,,,,,,"EC50 [4, 7]: 5 µM; PfIVT IC50 (μM) [1]: submicromolar potency; IC50 ([1]; Pandemic Box hits, 8-point, weighted mean ± SD of two technical replicates, read-out: IC50 value (μM) PfIVT): 0.8 ± 0.08 µM; PfIVT inhibition at 30 μM (%) ([1]; Pandemic Box): 73.3%; IC50 (CBG99 luciferase; Pandemic Box hits): 8.3 ± 0.08 µM; IC50 ([3]; Pandemic Box hits, weighted mean ± SD of two technical replicates, read-out: IC50 value (μM) HsIVT): 7.6 ± 0.12 µM; IC50 ([3]; read-out: HsIVT IC50 (text)): 8 µM"
"C[C@@H]1C[C@@H]([C@H](O)CC2CC(=O)NC(=O)C2)C(=O)[C@@H](C)C1 [Cycloheximide, cycloheximide, reference compound]",0.5,,,,,,,,"EC50 ([2]; read-out: EC50 values, µM PfABS (Table S1)): 0.1 µM; inhibition of translation in HsIVT assay (validation) [3]: successfully inhibit translation; effect on translation in the HsIVT assay (Fig. S3A) [3]: ablated activity; IC50 ([3]; weighted mean ± SD from at least two biological replicates, read-out: IC50 in the HsIVT assay (Fig. S3B)): 1.2 ± 0.04 µM"
"O=C(NCCN1CCCC1)c1cc(-c2ccc(CN3CCOCC3)cc2Cl)nc2ccc(F)cc12 [DDD00197451, reference compound]",0.5,,,,,,,,"inhibition of translation (PfIVT), internal control ([1]; internal control in all plates of the single-point screens): > 97%; EC50 [2, 6]: 0.003 µM"
O=C(Nc1ccc(C(F)(F)F)c(C(F)(F)F)c1)c1cc(Cl)ccc1O [MMV687807],,0.09 ± 0.007,1.8,≤ 5,0.09 ± 0.007,95.1,25 ± 0.8 µM,0.5 ± 0.006,
Cc1ccc2c(c1C)NC(=O)C21NN=C(c2ccccc2)S1 (stereo not drawn) [MMV019189],,0.03 ± 0.009,0.75,≥ 30,0.03 ± 0.009,84.4,7 µM and > 30 µM,7.7 ± 0.3,
O=C(Nc1c(O)cccc1-c1nc2c(C(=O)O)cccc2o1)c1cc(-c2ccccc2)on1 [MMV676008],,0.4 ± 0.08,> 20,≥ 30,0.4 ± 0.08,74.9,21 ± 0.6 µM,12 ± 0.4,"EC50 ([4]; Table 3 footnote: 3D7, read-out: EC50 against P. falciparum (text)): > 25 µM; IC50 ([1]; read-out: PfIVT IC50 (text)): 0.04 µM"
Cc1ccc(NC(=O)c2cc(Cl)ccc2O)cc1 [MMV1578897],,,,,,,,,"EC50 [4, 7]: 5 µM; PfIVT inhibition at 30 μM (%) ([1]; Pandemic Box): 93.4%"
O=C(NCCN1CCCC1)c1cc(NCCN2CCOCC2)nc2ccc(Cl)cc12 [MMV634140],,3 ± 0.09,0.09,,2.9 ± 0.09,88.4,> 30 µM,> 30,"EC50 ([4]; asexual-blood-stage P. falciparum, Table 3 footnote: 3D7, read-out: ABS EC50 (text)): 0.041 µM"
O=C(Nc1ccc(F)c(-c2nc3cc(-c4ccccc4)cnc3[nH]2)c1)N1CCCC1 [MMV688372],,,,,,62.9,,,"EC50 ([2]; 3D7, 72 h, read-out: P. falciparum asexual-blood-stage EC50): 13.6 µM; EC50 ([2]; read-out: EC50 against P. falciparum (text)): 14 µM"
O=C(NCCN1CCCC1)c1cc(NCCCCN2CCC(F)(F)CC2)nc2ccc(Cl)cc12 [MMV667494],,0.3 ± 0.09,0.01,≥ 30,0.3 ± 0.09,97.7,> 30 µM,> 30,
